# Data reported in the supplement of paper PMC10307832.
# Experiments:
# Assay in all cases: relative viability (nuclei count vs DMSO), 5 days (fraction); higher = more cells survive
# Doramapimod + Linsitinib = compound: Cc1ccc(-n2nc(C(C)(C)C)cc2NC(=O)Nc2ccc(OCCN3CCOCC3)c3ccccc23)cc1 [Doramapimod] + C[C@]1(O)C[C@@H](c2nc(-c3ccc4ccc(-c5ccccc5)nc4c3)c3c(N)nccn32)C1 [Linsitinib] (partner 1 µM)
# Summary of the method: (§1)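 A single step with final 0.05% Triton X-100, 1% formaldehyde and 1 ug/ml Hoechst fixed the cells and stained nuclei 5 days after treatment. Lung cancer cell lines in 1536-well plates had been treated by pin tool the day after seeding with one drug alone or a fixed anchor-drug dose plus five library-drug doses (not always all listed) in √10 steps, and nuclei were counted on 4× images. Relative viability is the ratio of nuclei in treated wells to nuclei in vehicle wells, taken as the median of duplicate plates.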
# IPA-3 + Dasatinib = compound: C1=CC=C2C(=C1)C=CC(=C2SSC3=C(C=CC4=CC=CC=C43)O)O [IPA-3] + Cc1nc(Nc2ncc(C(=O)Nc3c(C)cccc3Cl)s2)cc(N2CCN(CCO)CC2)n1 [Dasatinib] (partner 0.075 µM)
# Summary of the method: as §1
# IPA-3 + Pemetrexed = compound: C1=CC=C2C(=C1)C=CC(=C2SSC3=C(C=CC4=CC=CC=C43)O)O [IPA-3] + Nc1nc2[nH]cc(CCc3ccc(C(=O)N[C@@H](CCC(=O)O)C(=O)O)cc3)c2c(=O)[nH]1 [Pemetrexed] (partner 0.2 µM)
# Summary of the method: as §1
# RAF265 + Lapatinib = compound: Cn1c(Nc2ccc(C(F)(F)F)cc2)nc2cc(Oc3ccnc(-c4ncc(C(F)(F)F)[nH]4)c3)ccc21 [RAF265] + CS(=O)(=O)CCNCc1ccc(-c2ccc3ncnc(Nc4ccc(OCc5cccc(F)c5)c(Cl)c4)c3c2)o1 [Lapatinib] (partner 2 µM)
# Summary of the method: as §1
cell line,measurement,setting,value
UMC-11,relative viability,Doramapimod + Linsitinib; first compound 0.02 µM,0.946
same,relative viability,Doramapimod + Linsitinib; first compound 0.06325 µM,0.992
same,relative viability,Doramapimod + Linsitinib; first compound 0.2 µM,1.03
same,relative viability,Doramapimod + Linsitinib; first compound 0.6325 µM,1
same,relative viability,Doramapimod + Linsitinib; first compound 2 µM,0.718
same,relative viability,IPA-3 + Dasatinib; first compound 0.2 µM,0.605
same,relative viability,IPA-3 + Dasatinib; first compound 0.6325 µM,0.421
same,relative viability,IPA-3 + Dasatinib; first compound 2 µM,0.483
same,relative viability,IPA-3 + Dasatinib; first compound 6.325 µM,0.446
same,relative viability,IPA-3 + Dasatinib; first compound 20 µM,0.489
same,relative viability,IPA-3 + Pemetrexed; first compound 0.2 µM,0.869
same,relative viability,IPA-3 + Pemetrexed; first compound 0.6325 µM,0.756
same,relative viability,IPA-3 + Pemetrexed; first compound 2 µM,0.83
same,relative viability,IPA-3 + Pemetrexed; first compound 6.325 µM,0.769
same,relative viability,IPA-3 + Pemetrexed; first compound 20 µM,0.943
same,relative viability,RAF265 + Lapatinib; first compound 0.01 µM,0.97
same,relative viability,RAF265 + Lapatinib; first compound 0.03162 µM,0.859
same,relative viability,RAF265 + Lapatinib; first compound 0.1 µM,0.968
same,relative viability,RAF265 + Lapatinib; first compound 0.3162 µM,1.07
same,relative viability,RAF265 + Lapatinib; first compound 1 µM,0.776
